Measured values published in publication PMC5669010 (AIDS Research and Therapy, 2017).
Where two headings read alike, the source gives them in different places.

Legend:
[1] = cited from earlier work
[2] = system: wild-type (non-protease inhibitor-resistant) virus; conditions: cited from earlier work
[3] = human, in vivo, 24 h
Protocol: (§1) Plasma samples were frozen and stored at – 80 °C until analysis.
(§2) Addition of elvitegravir and cobicistat to the method was partly validated, including selectivity, linearity, accuracy and recovery, inter- and intra-run repeatability, and stability.
(§3) Elvitegravir and cobicistat concentrations were compared to historical controls.

[4] = clinical; conditions: human, in vivo, Elvitegravir Ctrough,ss, individual patients
Protocol: as §1, §2, §3

[5] = 60 subjects, darunavir 800 mg/cobicistat 150 mg with two NRTIs
[6] = population PK data for E/C/F/TDF, n = 419

For `CC(C)OC(=O)[C@H](C)N[P@](=O)(CO[C@H](C)Cn1cnc2c(N)ncnc21)Oc1ccccc1` [TAF, tenofovir alafenamide], the “Plasma concentrations of TAF” value ([1]; PK substudy of E/C/F/TAF plus darunavir switch study) is given as “at the lower end of the efficacious range”.
For `COC(=O)N[C@H](C(=O)N[C@@H](Cc1ccccc1)[C@@H](O)CN(Cc1ccc(-c2ccccn2)cc1)NC(=O)[C@@H](NC(=O)OC)C(C)(C)C)C(C)(C)C` [atazanavir], the “Effect of coadministration with elvitegravir/cobicistat on atazanavir trough levels” value ([1]; human, in vivo) is given as “significant lowering of atazanavir trough levels”.
In the case of `CC(C)c1nc(CN(C)C(=O)N[C@@H](CCN2CCOCC2)C(=O)N[C@H](CC[C@H](Cc2ccccc2)NC(=O)OCc2cncs2)Cc2ccccc2)cs1` [cobicistat], the “Cobicistat 24-h level, mean” value ([1]; 59 HIV-infected patients, darunavir/cobicistat with emtricitabine and tenofovir DF) is given as 33 ng/mL, the “Cobicistat C0h, mean” value [1, 5] is given as 76 ng/mL and the “Cobicistat Cmax, mean” value [1, 5] is given as 991 ng/mL. The “Cobicistat tmax, median” value [1, 5] was 3.5 h and the “Cobicistat 24-h concentration, mean” value ([1]; patients taking E/C/F/TDF with darunavir) was 20.2 ng/mL.
In the case of `CC(C)CN(C[C@@H](O)[C@H](Cc1ccccc1)NC(=O)O[C@H]1CO[C@H]2OCC[C@H]21)S(=O)(=O)c1ccc(N)cc1` [darunavir], the “Half maximal effective concentration (EC50)” value ([2]; wild-type (non-protease inhibitor-resistant) virus) is given as 0.055 µg/mL, the “Protein-adjusted 50% inhibitory concentration (IC50)” value ([2]; wild-type virus) is given as 0.055 µg/mL and the “Darunavir Cmax, mean” value [1, 5] is given as 7663 ng/mL. For the same compound, the “Darunavir tmax, median” value [1, 5] was 3.5 h.
In the case of `COc1cc2c(cc1Cc1cccc(Cl)c1F)c(=O)c(C(=O)O)cn2[C@H](CO)C(C)C` [elvitegravir], the “Elvitegravir Ctrough,ss relative to protein-adjusted IC95 (45 ng/mL)” value [3] is given as “more than 2 fold”, the “Elvitegravir Ctrough,ss, individual patients” value [3] is given as 82 ng/mL and the “Protein-adjusted 95% inhibitory concentration (IC95)” value ([2]; wild type virus) is given as 0.045 µg/mL. The concentration at 24 h [4] was under 80 ng/mL, the “Elvitegravir Ctrough,ss, mean” value ([1]; E/C/F/TAF + DRV, N 15) was 464 ng/mL and the “Elvitegravir Ctrough,ss, mean” value ([1]; E/C/F/TDF + DRV, N 24) was 234 ng/mL. For the same compound, the “Elvitegravir Ctrough,ss, mean” value ([1]; E/C/F/TDF without darunavir, N 32) was 250 ng/mL, the “Elvitegravir Ctrough,ss, mean” value ([1]; E/C/F/TDF without darunavir, N 419, population pharmacokinetic estimate) was 451 ng/mL and the “Elvitegravir Cmax, mean” value [1, 6] was 1731 ng/mL. The Elvitegravir tmax [1, 6] was 4.0 h.
